Experimental findings from patent US20100061943A1, “ORAL HEALTH COMPOSITION COMPRISING ALCHEMILLA VULGARIS” (MARS INCORPORATED, priority 2006, published 2010) are described below.

What all share (assay type): cell-based, cats
For test [1], the system named is anaerobes. The test is described as follows: Feline plate biofilm assay (PBA): bacterial viable counts, anaerobes. The conditions noted are these: 48 hours biofilm, extracts at 500 μg/ml, vs no active control. The method, then:
(§1) The assay requires fresh supragingival feline dental plaque and saliva for inoculation. The inoculum consists of pooled dental plaque and unfiltered saliva sampled from a group of 18 cats, varying in age, breed and oral health status.
(§2) The plaque and saliva were resuspended in artificial saliva to form the inoculum of approximately 10% plaque and 30% saliva.
(§3) The plate biofilm assay (PBA) utilises a 24 well plate format in which biofilms, representative of feline dental plaque, are grown on hydroxyapatite (HA) discs. Prior to being introduced to the 24 well assay plate, each HA disc is preconditioned for 2 hours in a solution of 50% filter sterilised feline saliva in artificial feline saliva. […] Each HA disc, with the exception of those being used for biomass quantification, is placed into 500 μl PBS and vortex mixed for 30 seconds to remove biofilm growth from the disc into solution. […] Biofilm-covered HA discs that are being used for biomass quantification are removed from the 24 well assay plate and used directly in the crystal violet assay.
(§4) Viable numbers of bacteria were quantified using Columbia blood agar plates supplemented with haemin and menadione. Aerobes were counted after incubation for 2 days and anaerobes, including black pigmenting colonies (BPC), were counted after incubation at appropriate conditions for 9 days. […]

In test [2] the test system is biofilms representative of feline dental plaque. Kind of test: Feline plate biofilm assay (PBA): biomass quantification (crystal violet assay). To be noted: 48 hours biofilm, OD595, extracts at 500 μg/ml, vs no active control. The method, then:
as §1, §2
as §3, with “saliva. The preconditioning step stimulates the formation of a salivary pellicle on the HA disc surface.” for “saliva.”
The total amount of biofilm grown on the HA discs was quantified using the crystal violet staining method. Biomass was represented as being directly proportional to the OD reading at 595 nm (OD595) of the samples compared to controls. […]

Test [3] deals with black pigmenting colonies (BPC). The test is described as follows: Feline plate biofilm assay (PBA): bacterial viable counts, black pigmenting colonies. The conditions noted are these: 48 hours biofilm, extracts at 500 μg/ml, vs no active control. The method, then:
as §1, §2, §3, §4

In test [4] the test system is Aerobes. Kind of test: Feline plate biofilm assay (PBA): bacterial viable counts, aerobes. To be noted: 48 hours biofilm, extracts at 500 μg/ml, vs no active control. The method, then:
as §1, §2, §3, §4

In test [5] the test system is Trypsin-like protease activity. The test is described as follows: Feline plate biofilm assay (PBA): protease activity (liquid BAPNA assay). The conditions noted are these: 48 hours biofilm, extracts at 500 μg/ml, vs no active control. As to the method:
as §1, §2
as §3, with “saliva. The preconditioning step stimulates the formation of a salivary pellicle on the HA disc surface.” for “saliva.”
Trypsin-like protease activity was measured using the liquid BAPNA assay, a colourimetric assay in which the amount of trypsin present in a sample is directly proportional to the intensity of the colour developed. […]

As for `[H]/N=C(\N/C(=N/[H])NCCCCCCNC(=N)NC(=N)Nc1ccc(Cl)cc1)Nc1ccc(Cl)cc1` [Chlorhexidine, chlorhexidine], the “Anaerobe (Log 10 reduction)” value in test [1] is listed as 2.16 Log 10. Besides, the “Biomass (% reduction)” value in test [2] amounted to 79.0%. In test [3], the “BPC (Log 10 reduction)” value is given as 4.86 Log 10. Besides, in test [4], the “Aerobe (Log 10 reduction)” value was 1.91 Log 10. In addition, the “Protease (% reduction)” value in test [5] came out at 90.0%.
